Results: ChEMBL document CHEMBL1138705, “Tetrahydroisoquinoline derivatives as melatonin MT2 receptor antagonists” (Bioorg Med Chem Lett, 2004)

Assays:
[1] = biological target: T1, Melatonin receptor type 1B (Homo sapiens, UniProt P49286); assay: Inhibitory concentration against Melatonin receptor type 1B
T1 sequence (P49286 whole entry): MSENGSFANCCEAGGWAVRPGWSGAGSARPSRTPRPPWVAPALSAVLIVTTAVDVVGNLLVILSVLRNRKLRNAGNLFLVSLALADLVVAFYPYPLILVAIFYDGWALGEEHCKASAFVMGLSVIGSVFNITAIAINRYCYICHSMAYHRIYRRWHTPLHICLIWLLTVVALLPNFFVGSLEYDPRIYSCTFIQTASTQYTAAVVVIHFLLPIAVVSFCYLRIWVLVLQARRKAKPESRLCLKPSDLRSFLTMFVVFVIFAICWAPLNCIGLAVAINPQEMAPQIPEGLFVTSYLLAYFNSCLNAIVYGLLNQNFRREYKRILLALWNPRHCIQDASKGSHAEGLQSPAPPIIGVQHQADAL

[2] = biological target: Melatonin receptor type 1A (Homo sapiens, UniProt P48039); assay: Inhibitory concentration against Melatonin receptor type 1A
Melatonin receptor type 1A, sequence (P48039 whole entry): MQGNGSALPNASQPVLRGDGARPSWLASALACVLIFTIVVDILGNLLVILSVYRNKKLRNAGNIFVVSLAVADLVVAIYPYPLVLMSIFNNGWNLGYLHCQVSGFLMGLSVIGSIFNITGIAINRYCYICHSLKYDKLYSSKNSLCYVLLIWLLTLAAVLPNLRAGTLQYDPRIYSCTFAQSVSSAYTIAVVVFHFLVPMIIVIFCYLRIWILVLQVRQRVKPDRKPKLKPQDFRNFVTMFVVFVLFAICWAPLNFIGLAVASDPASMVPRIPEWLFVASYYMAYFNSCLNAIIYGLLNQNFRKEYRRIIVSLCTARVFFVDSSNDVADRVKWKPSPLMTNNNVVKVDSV

IC50 [1] | IC50 [2] | SMILES
370 nM |  | COc1cc2c(cc1OC)C(CC(c1ccccc1)c1ccccc1)N(C(=O)C1CCCCC1)CC2 (stereo unspecified)
1000 nM |  | COc1cc2c(cc1OC)C(CCc1ccccc1)N(C(=O)c1ccc(C(F)(F)F)cc1)CC2 (stereo unspecified)
140 nM | > 1000 nM | CC(=O)N1CCc2cc(F)ccc2C1CC(c1ccccc1)c1ccccc1 (stereo unspecified)
30 nM | > 1000 nM | COc1cc2c(cc1OC)C(CC(c1ccccc1)c1ccccc1)N(C(N)=O)CC2 (stereo unspecified)
79 nM | > 1000 nM | CCCC(=O)N1CCc2cc(OC)c(OC)cc2C1CC(c1ccccc1)c1ccccc1 (stereo unspecified)
5.5 nM | 512 nM | COc1ccc2c(c1)C(CC(c1ccccc1)c1ccccc1)N(C(C)=O)CC2 (stereo unspecified)
60 nM | > 1000 nM | CNC(=O)N1CCc2cc(OC)c(OC)cc2C1CC(c1ccccc1)c1ccccc1 (stereo unspecified)
160 nM | > 1000 nM | COc1cc2c(cc1OC)C(CCc1ccccc1)N(C(N)=O)CC2 (stereo unspecified)
> 1000 nM | > 1000 nM | CC(=O)N1CCc2ccccc2C1CC(c1ccccc1)c1ccccc1 (stereo unspecified)
24 nM | 230 nM | COc1cc2c(cc1Br)CCN(C(C)=O)C2CC(c1ccccc1)c1ccccc1 (stereo unspecified)
> 1000 nM | > 1000 nM | COc1cccc2c1CCN(C(C)=O)C2CC(c1ccccc1)c1ccccc1 (stereo unspecified)
45 nM | > 1000 nM | COc1cc2c(c(OC)c1)C(CC(c1ccccc1)c1ccccc1)N(C(C)=O)CC2 (stereo unspecified)
220 nM |  | COc1cc2c(cc1OC)C(CCc1ccccc1)N(C(=O)C1CCCCC1)CC2 (stereo unspecified)
9.7 nM | > 1000 nM | COc1cc2c(cc1OC)C(CC(c1ccccc1)c1ccccc1)N(C(C)=O)CC2 (stereo unspecified)
400 nM |  | CCCCCCC(=O)N1CCc2cc(OC)c(OC)cc2C1CC(c1ccccc1)c1ccccc1 (stereo unspecified)
76 nM | > 1000 nM | COc1cc2c(cc1OC)C(CCc1ccccc1)N(C(C)=O)CC2 (stereo unspecified)
62 nM | > 1000 nM | CCC(=O)N1CCc2cc(OC)c(OC)cc2C1CC(c1ccccc1)c1ccccc1 (stereo unspecified)
810 nM |  | COc1cc2c(cc1OC)C(CC(c1ccccc1)c1ccccc1)N(C(=O)c1ccc(C(F)(F)F)cc1)CC2 (stereo unspecified)
> 1000 nM | > 1000 nM | CC(=O)N1CCc2c(ccc3c2CCO3)C1CC(c1ccccc1)c1ccccc1 (stereo unspecified)
83 nM | > 1000 nM | COc1cc2c(cc1OC)C(CCc1ccccc1)N(C=O)CC2 (stereo unspecified)
120 nM | > 1000 nM | COc1cc2c(cc1OC)C(CC(c1ccccc1)c1ccccc1)N(C(=O)c1ccccc1)CC2 (stereo unspecified)
280 nM |  | CCCCCC(=O)N1CCc2cc(OC)c(OC)cc2C1CC(c1ccccc1)c1ccccc1 (stereo unspecified)
> 1000 nM | > 1000 nM | COc1ccc2c(c1OC)CCN(C(C)=O)C2CC(c1ccccc1)c1ccccc1 (stereo unspecified)
9.9 nM | 621 nM | COc1cc2c(cc1OC)C(CC(c1ccccc1)c1ccccc1)N(C=O)CC2 (stereo unspecified)
24 nM |  | COc1cc2c(cc1OC)C(CCc1ccccc1)N(C(=O)C1CCC1)CC2 (stereo unspecified)
100 nM | > 1000 nM | COc1cc2c(cc1OC)C(CC(c1ccccc1)c1ccccc1)N(C(=O)C(F)(F)F)CC2 (stereo unspecified)
22 nM | 673 nM | COC(=O)N1CCc2cc(OC)c(OC)cc2C1CC(c1ccccc1)c1ccccc1 (stereo unspecified)
270 nM | > 1000 nM | COc1ccc2c(c1)CCN(C(C)=O)C2CC(c1ccccc1)c1ccccc1 (stereo unspecified)
310 nM |  | COc1cc2c(cc1OC)C(CC(c1ccccc1)c1ccccc1)N(C(=O)C1CCC1)CC2 (stereo in doubt; 1j)
240 nM |  | COc1cc2c(cc1OC)C(CC(c1ccccc1)c1ccccc1)N(C(=O)C1CCC1)CC2 (stereo in doubt; 1m)
